Source: patent publication US10774053B2, “HIV protease inhibitors” (Gilead Sciences, Inc., priority 2017, dated 2020)

tested on: HIV-1 (IIIB) in MT-4 cells; experiment: microbe, parasite or virus in culture; type: cell-based; details: Human immunodeficiency virus 1, IIIB, MT4, MT-4 cells, HIV-1; read-out: MT4 EC50

Compound	EC50 [nM]
CC(C)(C)C[C@]1(c2ccc(-c3cnn(C(F)F)c3)cc2)NC(=N)N([C@H](COC(=O)NC2(C)CC2)c2ccc(Cl)c(-n3cccn3)c2)C1=O [Compound 258]	28.5
CCC1(NC(=O)OC[C@H](c2ccc(Cl)c(-n3cccn3)c2)N2C(=N)N[C@](CC(C)(C)C)(c3ccc(-c4cnn(C(F)F)c4)cc3)C2=O)CC1 [Compound 259]	65.4
CC(C)(C)C[C@]1(c2ccc(-c3cnn(C(F)F)c3)cc2)NC(=N)N([C@H](COC(=O)NC2(C)CC2)c2ccc(Cl)c(-n3ccnn3)c2)C1=O [Compound 260]	32.4
CC(C)(C)C[C@]1(c2ccc(-c3cnn(C(F)F)c3)cc2)NC(=N)N([C@H](COC(=O)N2CC(F)(F)C2)c2ccc(Cl)c(-n3cccn3)c2)C1=O [Compound 261]	29
CC1(NC(=O)OC[C@H](c2ccc(Cl)c(-n3cccn3)c2)N2C(=N)N[C@](CC(C)(C)C(F)(F)F)(c3cc(F)cc(F)c3)C2=O)CC1 [Compound 262]	1800
CC1(NC(=O)OC[C@H](c2ccc(Cl)c(-n3cccn3)c2)N2C(=N)N[C@](CC(C)(C)C(F)(F)F)(c3ccc(Cl)cc3)C2=O)CC1 [Compound 263]	748
CC(C)(C)C[C@]1(c2ccc(-c3cnn(C(F)F)c3)cc2)NC(=N)N([C@H](COC(=O)NC2(C)CC2)c2ccc(Cl)c(-n3cc(C4CC4)cn3)c2)C1=O [Compound 264]	228
CC(C)(C)C[C@]1(c2ccc(-c3cnn(C(F)F)c3)cc2)NC(=N)N([C@H](COC(=O)NC2(C)CC2)c2ccc(Cl)c(-n3cc(C#N)cn3)c2)C1=O [Compound 265]	17.9
CC(C)(C)C[C@]1(c2ccc(-c3cnn(C(F)F)c3)cc2)NC(=N)N([C@H](COC(=O)NC2(C)CC2)c2ccc(Cl)c(-n3cnnn3)c2)C1=O [Compound 266]	57.4
N=C1N[C@](C#CC2CC2)(c2ccc(-c3cnn(C(F)F)c3)cc2)C(=O)N1[C@H](COC(=O)NC1(C(F)(F)F)CC1)c1ccc(Cl)c(-n2cccn2)c1 [Compound 267]	243
CC(C)(C)C[C@]1(c2ccc(-c3cnn(C(F)F)c3)cc2)NC(=N)N([C@H](COC(=O)NC2(C(F)(F)F)CC2)c2ccc(Cl)c(-n3nccn3)c2)C1=O [Compound 268]	37.8
CC(C)(C)C[C@]1(c2ccc(-c3cnn(C(F)F)c3)cc2)NC(=N)N([C@H](COC(=O)NC2(C)CC2)c2cc(-n3cncn3)c(Cl)cn2)C1=O [Compound 269]	62.4
CC(C)(C)C[C@]1(c2ccc(-c3ccc(F)cn3)cc2)NC(=N)N([C@H](COC(=O)NC2(C(F)(F)F)CC2)c2ccc(Cl)c(-n3ncnc3C(F)F)c2)C1=O [Compound 274]	11.1
CC(C)(C)C[C@]1(c2ccc(-c3ncc(F)cn3)cc2)NC(=N)N([C@H](COC(=O)NC2(C(F)(F)F)CC2)c2ccc(Cl)c(-n3ncnc3C(F)F)c2)C1=O [Compound 275]	12.8
CC(C)(C)C[C@]1(c2ccc(-c3ccsn3)cc2)NC(=N)N([C@H](COC(=O)NC2(C(F)(F)F)CC2)c2ccc(Cl)c(-n3ncnc3C(F)F)c2)C1=O [Compound 276]	12.5
CC(C)(C)C[C@]1(c2ccc(-c3cncs3)cc2)NC(=N)N([C@H](COC(=O)NC2(C(F)(F)F)CC2)c2ccc(Cl)c(-n3ncnc3C(F)F)c2)C1=O [Compound 277]	6.99
CC(C)(C)C[C@]1(c2ccc(-c3ccc(C(F)F)nc3)cc2F)NC(=N)N([C@H](COC(=O)NC2(C(F)(F)F)CC2)c2ccc(Cl)c(-n3ncnc3C(F)F)c2)C1=O [Compound 279]	23.5
CC(C)(C)C[C@]1(c2ccc(C#N)cc2)NC(=N)N([C@H](COC(=O)NC2(C(F)(F)F)CC2)c2ccc(Cl)c(-n3ncnc3C(F)F)c2)C1=O [Compound 280]	20.7
CC(C)(C)C[C@]1(c2ccc(-c3ccc(C#N)cc3)cc2)NC(=N)N([C@H](COC(=O)NC2(C(F)(F)F)CC2)c2ccc(Cl)c(-n3ncnc3C(F)F)c2)C1=O [Compound 281]	22.2
CC(C)(C)C[C@]1(c2ccc(-c3ccc(OC(F)F)cc3)cc2)NC(=N)N([C@H](COC(=O)NC2(C(F)(F)F)CC2)c2ccc(Cl)c(-n3ncnc3C(F)F)c2)C1=O [Compound 282]	62
CC(C)(C)C[C@]1(c2ccc(-c3ccc4c(c3)OC(F)(F)O4)cc2)NC(=N)N([C@H](COC(=O)NC2(C(F)(F)F)CC2)c2ccc(Cl)c(-n3ncnc3C(F)F)c2)C1=O [Compound 283]	113
CC(C)(C)C[C@]1(c2ccc(-c3ncns3)cc2F)NC(=N)N([C@H](COC(=O)NC2(C(F)(F)F)CC2)c2ccc(Cl)c(-n3ncnc3C(F)F)c2)C1=O [Compound 284]	11.4
CC(C)(C)C[C@]1(c2ccc(-c3ccn(C(F)F)n3)cc2F)NC(=N)N([C@H](COC(=O)NC2(C(F)(F)F)CC2)c2ccc(Cl)c(-n3ncnc3C(F)F)c2)C1=O [Compound 285]	16.8
CC(C)(C)C[C@]1(c2ccc(-c3cnn(C(F)F)c3)cc2)NC(=N)N([C@H](COC(=O)N[C@@H]2C[C@@H]2F)c2ccc(Cl)c(-n3ncnc3C(F)F)c2)C1=O [Compound 287]	7.55
CC(C)(C)C[C@]1(c2ccc(-c3cnn(C(F)F)c3)cc2)NC(=N)N([C@H](COC(=O)N[C@H]2C[C@H]2F)c2ccc(Cl)c(-n3ncnc3C(F)F)c2)C1=O [Compound 288]	6.07

Compound	EC50 [nM]
CC(C)(C)C[C@]1(c2ccc(-c3cnn(S(C)(=O)=O)c3)cc2)NC(=N)N([C@H](COC(=O)NC2(C(F)(F)F)CC2)c2ccc(Cl)c(-n3ncnc3C(F)F)c2)C1=O [Compound 292]	14.2
CC(C)(C)C[C@]1(c2ccc(-c3cnn(S(C)(=O)=O)c3)c(F)c2)NC(=N)N([C@H](COC(=O)NC2CC2(F)F)c2ccc(Cl)c(-n3ncnc3C(F)F)c2)C1=O (stereo partly shown) [Compound 293]	10.5
CC(C)(C)C[C@]1(c2ccc(-c3cnn(C4CC4)c3)cc2)NC(=N)N([C@H](COC(=O)N[C@H]2CC2(F)F)c2ccc(Cl)c(-n3ncnc3C(F)F)c2)C1=O [Compound 294]	8.74
Cn1ccc(-c2ccc([C@@]3(CC(C)(C)C)NC(=N)N([C@H](COC(=O)N[C@H]4CC4(F)F)c4ccc(Cl)c(-n5ncnc5C(F)F)c4)C3=O)cc2)n1 [Compound 296]	8.57
Cn1ccc(-c2ccc([C@@]3(CC(C)(C)C)NC(=N)N([C@H](COC(=O)NCC(F)(F)F)c4ccc(Cl)c(-n5ncnc5C(F)F)c4)C3=O)cc2)n1 [Compound 297]	10.3
CC(C)(C)C[C@]1(c2ccc(-c3cnn(C4CC4)c3)c(F)c2)NC(=N)N([C@H](COC(=O)NC2CC2(F)F)c2ccc(Cl)c(-n3ncnc3C(F)F)c2)C1=O (stereo partly shown) [Compound 298]	7.83
CC(C)(C)C[C@]1(c2ccc(-c3cnn(C(F)F)c3)c(F)c2)NC(=N)N([C@H](COC(=O)NCC(C)(F)F)c2ccc(Cl)c(-n3ncnc3C(F)F)c2)C1=O [Compound 299]	13
CC(C)(C)C[C@]1(c2ccc(-c3cnn(S(C)(=O)=O)c3)c(F)c2)NC(=N)N([C@H](COC(=O)NCC(F)(F)F)c2ccc(Cl)c(-n3ncnc3C(F)F)c2)C1=O [Compound 300]	12.5
CC(C)(C)C[C@]1(c2ccc(-c3cnn(S(=O)(=O)C4CC4)c3)c(F)c2)NC(=N)N([C@H](COC(=O)NCC(F)(F)F)c2ccc(Cl)c(-n3ncnc3C(F)F)c2)C1=O [Compound 302]	18.1
CC(C)(C)C[C@]1(c2ccc(-c3cnn(C4CC4)c3)c(F)c2)NC(=N)N([C@H](COC(=O)NC2(C(F)(F)F)CC2)c2ccc(Cl)c(-n3ncnc3C(F)F)c2)C1=O [Compound 306]	10.9
CC(C)(C)C[C@]1(c2ccc(-c3cnn(C4CC4)c3)c(F)c2)NC(=N)N([C@H](COC(=O)NCC(F)(F)F)c2ccc(Cl)c(-n3ncnc3C(F)F)c2)C1=O [Compound 307]	12.7
CC(C)(C)C[C@]1(c2ccc(-n3nccn3)c(F)c2)NC(=N)N([C@H](COC(=O)NC2(C(F)(F)F)CC2)c2ccc(Cl)c(-n3ncnc3C(F)F)c2)C1=O [Compound 309]	13.4
C[C@@H](NC(=O)OC[C@H](c1ccc(Cl)c(-n2ncnc2C(F)F)c1)N1C(=N)N[C@](CC(C)(C)C)(c2ccc(-c3cnn(C(F)F)c3)cc2)C1=O)C(F)(F)F [Compound 310]	20.3
CC(C)(C)C[C@]1(c2ccc(-c3ccc(S(C)(=O)=O)cc3)c(F)c2)NC(=N)N([C@H](COC(=O)NC2(C(F)(F)F)CC2)c2ccc(Cl)c(-n3ncnc3C(F)F)c2)C1=O [Compound 313]	19.5
C[C@H](NC(=O)OC[C@H](c1ccc(Cl)c(-n2ncnc2C(F)F)c1)N1C(=N)N[C@](CC(C)(C)C)(c2ccc(-c3cnn(C4CC4)c3)c(F)c2)C1=O)C(F)(F)F [Compound 314]	8.19
C[C@H](NC(=O)OC[C@H](c1ccc(Cl)c(-n2ncnc2C(F)F)c1)N1C(=N)N[C@](CC(C)(C)C)(c2ccc(-c3cnn(C4CC4)c3)cc2F)C1=O)C(F)(F)F [Compound 315]	9.97
CC(C)(C)C[C@]1(c2ccc(-c3cnn(C4CC4)c3)c(Cl)c2)NC(=N)N([C@H](COC(=O)NC2(C(F)(F)F)CC2)c2ccc(Cl)c(-n3ncnc3C(F)F)c2)C1=O [Compound 316]	13.3
CC(C)(C)C[C@]1(c2ccc(-c3cn(C4CC4)nc3F)cc2)NC(=N)N([C@H](COC(=O)NC2(C(F)(F)F)CC2)c2ccc(Cl)c(-n3ncnc3C(F)F)c2)C1=O [Compound 318]	13.2
CC(C)(C)C[C@]1(c2ccc(-c3cnn(C4CC4)c3)cc2)NC(=N)N([C@H](COC(=O)NC2(C(F)(F)F)CC2)c2ccc(Cl)c(-n3cncn3)c2)C1=O [Compound 319]	17.8
CC(C)(C)C[C@]1(c2ccc(-c3ccccn3)cc2)NC(=N)N([C@H](COC(=O)NC2(C(F)(F)F)CC2)c2ccc(Cl)c(-n3cncn3)c2)C1=O [Compound 320]	22.5
CC(C)(C)C[C@]1(c2ccc(-c3ccns3)cc2)NC(=N)N([C@H](COC(=O)NC2(C(F)(F)F)CC2)c2ccc(Cl)c(-n3cncn3)c2)C1=O [Compound 321]	20.8
CC(C)(C)C[C@]1(c2ccc(-c3ccsn3)cc2)NC(=N)N([C@H](COC(=O)NC2(C(F)(F)F)CC2)c2cccc(-n3ncnc3C(F)F)c2)C1=O [Compound 322]	39
CC1(NC(=O)OC[C@H](c2ccc(Cl)c(-n3cccn3)c2)N2C(=N)N[C@](CC(C)(C)C(F)(F)F)(c3ccc(-c4cnn(C(F)F)c4)cc3)C2=O)CC1 [Compound 323]	50.7
CC1(NC(=O)OC[C@H](c2ccc(Cl)c(-n3cccn3)c2)N2C(=N)N[C@](CC(C)(C)C(F)(F)F)(c3ccc(-c4cnn(C5CC5)c4)cc3)C2=O)CC1 [Compound 324]	27.8
